These results are taken from patent publication US10463690B2, “Method and compositions for treating cancerous tumors” (priority 2016, dated 2019).

The conditions of data set [1]: placed on rats in a 60% of the body 3rd degree burn; cited from earlier work.
For the next data set, the system named is tumor. The following applies: animal experiments; cited from earlier work.
The format of data set [2] is in vivo, Mice (SK1IPYMT 4913×SK1FVB). An excerpt:
The purpose was to see how and where the test product spread throughout the body. Mice were euthanized so that internal cavity could be examined. Organs were cut in half for inspection of the extent of saturation.

Structures are written as SMILES.

For the compound `[O][Cl+][O-]` [ClO2, Chlorine dioxide], in data set [1], the toxicity entry is reported as “no toxicity was indicated”.

Regarding `NCCCC(N)(C(=O)O)C(F)F` (stereo not shown) [DFMO, difuoromethylornithine], the “effect on tumor growth” value with tumor is recorded as “reduced tumor growth”. As to `CN(C)c1ccc2nc3ccc(=[N+](C)C)cc-3sc2c1` [methylene blue, Methylene blue], the “distribution of dye after injection into kidney” value in data set [2] (kidney injection) is “The entire kidney got saturated and the dye got into the urine but did not spread throughout the body”. Also, the “distribution of dye after injection into liver” value in data set [2] (liver injection) is recorded as “The dye did not spread past the injection site in the liver”.
